The supplement of paper PMC10307832

Experiments:
Assay in all cases: relative viability (nuclei count vs DMSO), 5 days (fraction); higher = more cells survive
Quizartinib + Luminespib = compound: CC(C)(C)c1cc(NC(=O)Nc2ccc(-c3cn4c(n3)sc3cc(OCCN5CCOCC5)ccc34)cc2)no1 [Quizartinib] + CCNC(=O)c1noc(-c2cc(C(C)C)c(O)cc2O)c1-c1ccc(CN2CCOCC2)cc1 [Luminespib] (partner 0.01 µM)
Method in brief: (§1)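 One day after seeding in 1536-well plates, lung cancer cell lines were dosed by pin tool. Dosing was either single-drug or a fixed anchor-drug dose plus five library-drug doses (not always all listed) in √10 steps. After 5 days, nuclei were stained in one fix-and-stain step and counted on 4× images, and relative viability is the nuclei count of treated wells over that of vehicle wells, given as the median of duplicate plates.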

YM155 + OSI-027 = compound: COCC[n+]1c2c(n(Cc3cnccn3)c1C)C(=O)c1ccccc1C2=O [YM155] + COc1cccc2cc(-c3nc([C@H]4CC[C@H](C(=O)O)CC4)n4ncnc(N)c34)[nH]c12 [OSI-027] (partner 0.5 µM)
Method in brief: as §1

Quizartinib + Crizotinib = compound: CC(C)(C)c1cc(NC(=O)Nc2ccc(-c3cn4c(n3)sc3cc(OCCN5CCOCC5)ccc34)cc2)no1 [Quizartinib] + C[C@@H](Oc1cc(-c2cnn(C3CCNCC3)c2)cnc1N)c1c(Cl)ccc(F)c1Cl [Crizotinib] (partner 1 µM)
Method in brief: as §1

Quizartinib + Pemetrexed = compound: CC(C)(C)c1cc(NC(=O)Nc2ccc(-c3cn4c(n3)sc3cc(OCCN5CCOCC5)ccc34)cc2)no1 [Quizartinib] + Nc1nc2[nH]cc(CCc3ccc(C(=O)N[C@@H](CCC(=O)O)C(=O)O)cc3)c2c(=O)[nH]1 [Pemetrexed] (partner 0.2 µM)
Method in brief: as §1

| Cell Line | relative viability (Quizartinib + Luminespib; first compound 0.001 µM) | relative viability (Quizartinib + Luminespib; first compound 0.003162 µM) | relative viability (Quizartinib + Luminespib; first compound 0.01 µM) | relative viability (Quizartinib + Luminespib; first compound 0.03162 µM) | relative viability (Quizartinib + Luminespib; first compound 0.1 µM) | relative viability (YM155 + OSI-027; first compound 0.002 µM) | relative viability (YM155 + OSI-027; first compound 0.006325 µM) | relative viability (YM155 + OSI-027; first compound 0.02 µM) | relative viability (YM155 + OSI-027; first compound 0.06325 µM) | relative viability (Quizartinib + Crizotinib; first compound 0.001 µM) | relative viability (Quizartinib + Crizotinib; first compound 0.003162 µM) | relative viability (Quizartinib + Crizotinib; first compound 0.01 µM) | relative viability (Quizartinib + Crizotinib; first compound 0.1 µM) | relative viability (Quizartinib + Pemetrexed; first compound 0.001 µM) | relative viability (Quizartinib + Pemetrexed; first compound 0.003162 µM) | relative viability (Quizartinib + Pemetrexed; first compound 0.01 µM) | relative viability (Quizartinib + Pemetrexed; first compound 0.1 µM) | relative viability (Quizartinib + Crizotinib; first compound 0.03162 µM) | relative viability (Quizartinib + Pemetrexed; first compound 0.03162 µM) |
| --- | --- | --- | --- | --- | --- | --- | --- | --- | --- | --- | --- | --- | --- | --- | --- | --- | --- | --- | --- |
| NCI-H358 | 0.224 | 0.359 | 0.309 | 0.475 | 0.228 | 0.684 | 0.981 | 0.887 | 0.552 | 0.584 | 0.558 | 0.66 | 0.38 | 0.164 | 0.148 | 0.223 | 0.155 |  |  |
| NCI-H441 | 0.352 | 0.369 | 0.339 |  | 0.362 | 0.468 | 0.496 | 0.537 | 0.381 | 0.527 | 0.624 | 0.896 | 0.969 | 0.261 | 0.267 | 0.247 | 0.287 | 0.673 | 0.255 |
| NCI-H460 | 0.0338 | 0.0373 | 0.0292 | 0.0246 | 0.0321 | 0.584 | 0.769 | 0.757 | 0.694 | 0.708 | 0.842 | 1.02 | 0.416 |  | 0.058 | 0.0614 | 0.073 |  |  |
| NCI-H520 | 0.232 | 0.201 | 0.207 | 0.333 | 0.255 | 0.244 | 0.242 | 0.29 | 0.326 | 0.726 | 0.686 | 0.739 | 0.666 |  | 0.557 | 0.745 | 0.477 | 0.726 | 0.714 |
| NCI-H596 | 0.922 | 0.884 | 1.02 | 0.852 | 0.888 | 0.735 | 0.806 | 0.743 | 0.85 | 0.971 | 1 | 1.09 | 0.761 | 0.511 | 0.475 | 0.498 | 0.459 | 0.932 | 0.476 |
| NCI-H647 | 0.174 | 0.155 | 0.213 | 0.327 | 0.189 | 0.812 | 0.736 | 0.762 | 0.483 | 0.9 | 0.948 | 1.31 | 0.847 | 0.141 | 0.125 | 0.221 | 0.19 | 1.06 | 0.182 |
| NCI-H650 | 0.7 | 0.762 | 0.91 | 0.68 | 0.718 | 0.503 | 0.542 | 0.572 | 0.52 | 0.684 | 0.525 | 0.772 | 0.749 | 0.902 | 0.945 | 0.9 | 1.09 | 0.628 | 0.912 |
| NCI-H661 | 0.921 | 0.899 | 0.929 | 0.905 | 0.9 | 0.703 | 0.722 | 0.708 | 0.308 | 0.905 | 0.998 | 1.07 | 0.856 | 0.868 | 0.887 | 0.926 | 0.89 |  | 0.898 |
| NCI-H838 | 0.203 | 0.207 | 0.329 | 0.281 | 0.234 | 0.361 | 0.406 | 0.421 | 0.438 | 0.787 | 0.878 | 0.767 | 0.368 | 0.244 | 0.231 | 0.268 | 0.236 | 0.691 | 0.257 |
| NCI-H1355 | 0.814 | 0.689 | 0.721 | 0.68 | 0.725 | 0.386 | 0.394 | 0.454 | 0.47 | 1.03 | 1.01 | 1.11 | 1.15 | 0.972 | 1.03 | 0.92 | 0.935 | 0.99 | 1.09 |
| NCI-H1437 | 1.01 | 1.07 | 1.09 | 0.782 | 0.982 | 0.838 | 0.844 | 0.871 | 0.783 | 0.822 | 0.849 | 0.906 | 0.608 | 0.314 | 0.302 | 0.305 | 0.32 | 0.687 | 0.335 |
| NCI-H1563 | 0.516 | 0.499 | 0.528 | 0.551 | 0.584 | 0.752 | 0.754 | 0.652 | 0.741 | 0.825 | 0.851 | 0.982 | 0.78 | 1.18 | 0.788 | 0.8 | 0.76 |  | 0.717 |
| NCI-H1650 | 0.185 | 0.182 | 0.19 |  | 0.172 | 0.677 | 0.783 | 0.594 | 0.613 | 0.891 | 0.957 | 1.23 | 0.881 | 0.342 | 0.398 | 0.441 | 0.381 |  |  |
| NCI-H1651 | 0.811 | 0.794 | 0.913 | 0.599 | 0.92 | 0.685 | 0.774 | 0.88 | 0.585 | 0.757 | 0.9 | 0.877 | 0.896 | 0.524 | 0.594 | 0.665 | 0.59 | 0.86 | 0.596 |
| NCI-H1666 | 0.977 | 1.05 | 1.02 | 0.789 | 1.03 | 0.767 | 0.911 | 0.859 | 0.841 | 0.917 | 0.829 | 1.07 | 0.974 | 0.772 | 0.822 | 0.85 | 0.914 | 0.777 | 0.827 |
| NCI-H1734 | 0.16 | 0.257 | 0.188 | 0.178 | 0.197 | 0.599 | 0.586 | 0.616 | 0.684 | 0.582 | 0.656 | 0.854 | 0.549 | 0.375 | 0.412 | 0.407 | 0.412 | 0.602 | 0.457 |
